Assay results reported in patent publication US9702869B2, “Assays, antibodies, immunogens and compositions related to 5-FU” (WELLSTAT DIAGNOSTICS, LLC, priority 2011, dated 2017).

These molecules were tested on anti-5-FU 61C6 monoclonal antibody (assay: Assay timing evaluation of competitive 5-FU ECL immunoassay). Conditions: 25 ng/mL of 5-FU in charcoal stripped plasma; 5 minutes incubation at 37° C.
Format: binding, Balb/c mouse
With `O=c1[nH]cc(F)c(=O)[nH]1` [5-FU, 5-Fluorouracil] the “ECL signal compared to CAL1” value was 61%.

Same assay, conditions: 25 ng/mL of 5-FU in charcoal stripped plasma; other incubation timing (10, 15 minutes)
For `O=c1[nH]cc(F)c(=O)[nH]1` [5-FU, 5-Fluorouracil], the “ECL signal compared to CAL1” value was 78%.

What follows are molecules tested on monoclonal antibody 61C6 (assay: Cross-reactivity evaluation with lyophilized reagents (Bi-mAb-Beads capture, TAG Plus 1-5C-5-FU-BSA detector)). Conditions: With 75 ng/mL Spiked 5-FU.
Format: binding, Balb/c mouse
Protocol: This experiment was performed to test the specificity of the monoclonal antibody 61C6 against 5-FU analogues, pro-drugs and interference reagents. […] In this Example, the components of 5-FU assay (capture, detector) were lyophilized and the sample (calibrator, controls, and spiked plasma samples) were added directly to the lyophilized reagent pellets.
The assay was prepared using the following protocol. […] The capture and the detector solutions were aliquoted (20 μL) and lyophilized.
The assay procedure was as follows. The electrostatic on the surface of the microplate was reduced by using a Zerostat Antistatic Device prior to use. The device was pointed on the surface of the microplate, squeezed and the trigger released a few times across the microplate. 1 lyophilized pellet of each capture and detector reagent was transferred into plate wells using the Vacuum Pick-Up System. A hollow needle tip was attached onto the pick-up pen, and the finger controlled vacuum was used for picking up (the index finger was placed over the hole so that vacuum was drawn through the needle) or releasing pellet (lifting the index finger off of the hole). On a metal plate holder of a Digital Heat Block set at 37±2° C., 50 μL of each calibrator, control, and sample (in this case cross-reactivity panels) were added in duplicate directly into plate wells containing 2 lyophilized pellets. The plate was placed on the Micromix shaker set at Form 8 & Amp 6 for 30 seconds to mix. The plate was then placed in the metal plate holder of a Digital Heat Block set at 37±2° C. The plate was covered with a plate cover and incubated for 5±0.5 minutes.
With `Cc1cn([C@H]2C[C@H](O)[C@@H](CO)O2)c(=O)[nH]c1=O` [Thymidine] the “% Cross-React” value was 1.0%. In the case of `O=c1[nH]c(=O)n(C2CCCO2)cc1F` (centres unmarked) [Tegafur], the “% Cross-React” value is reported as 56%. With `O=c1ccn([C@@H]2O[C@H](CO)[C@@H](O)[C@H]2O)c(=O)[nH]1` [Uridine] the “% Cross-React” value was 1.6%. For Hemoglobin, the “% Cross-React” value was 0.0%. With `CN(Cc1cnc2nc(N)nc(N)c2n1)c1ccc(C(=O)N[C@@H](CCC(=O)O)C(=O)O)cc1` [Methotrexate] the “% Cross-React” value was 0.0%. `CCc1c2c(nc3ccc(OC(=O)N4CCC(N5CCCCC5)CC4)cc13)-c1cc3c(c(=O)n1C2)COC(=O)[C@]3(O)CC` [Irinotecan] was tested, and the “% Cross-React” value was 0.1%. For `O=c1cc[nH]c(=O)[nH]1` [Uracil], the “% Cross-React” value was 3.4%. In the case of `Nc1nc(=O)c2c([nH]1)NCC(CNc1ccc(C(=O)N[C@@H](CCC(=O)O)C(=O)O)cc1)N2C=O` (mixture of isomers) [Folinic Acid], the “% Cross-React” value is reported as 0.1%. With `Cc1c[nH]c(=O)[nH]c1=O` [Thymine] the “% Cross-React” value was 2.5%. `CCCCCOC(=O)Nc1nc(=O)n([C@@H]2O[C@H](C)[C@@H](O)[C@H]2O)cc1F` [Capecitabine] was tested, and the “% Cross-React” value was 0.7%.

Same assay, conditions: With 1000 ng/mL Spiked 5-FU
With `Cc1cn([C@H]2C[C@H](O)[C@@H](CO)O2)c(=O)[nH]c1=O` [Thymidine] the “% Cross-React” value was 1.3%. For `O=c1[nH]c(=O)n(C2CCCO2)cc1F` (centres unmarked) [Tegafur], the “% Cross-React” value was 45%. `O=c1ccn([C@@H]2O[C@H](CO)[C@@H](O)[C@H]2O)c(=O)[nH]1` [Uridine] was tested, and the “% Cross-React” value was 0.9%. With Hemoglobin the “% Cross-React” value was −0.1%. For `N.N.[Cl][Pt][Cl]` [Cisplatin], the “% Cross-React” value was 0.1%. `CN(Cc1cnc2nc(N)nc(N)c2n1)c1ccc(C(=O)N[C@@H](CCC(=O)O)C(=O)O)cc1` [Methotrexate] was tested, and the “% Cross-React” value was 0.1%. With `CCc1c2c(nc3ccc(OC(=O)N4CCC(N5CCCCC5)CC4)cc13)-c1cc3c(c(=O)n1C2)COC(=O)[C@]3(O)CC` [Irinotecan] the “% Cross-React” value was 0.3%. With `O=c1cc[nH]c(=O)[nH]1` [Uracil] the “% Cross-React” value was 2.6%. With `Nc1nc(=O)c2c([nH]1)NCC(CNc1ccc(C(=O)N[C@@H](CCC(=O)O)C(=O)O)cc1)N2C=O` (mixture of isomers) [Folinic Acid] the “% Cross-React” value was 0.0%. With `Cc1c[nH]c(=O)[nH]c1=O` [Thymine] the “% Cross-React” value was 2.2%. `O=C1NCC(F)C(=O)N1` (centres unmarked) [DH5FU, 5-Fluorodihydropyrimidine-2,4-dione] was tested, and the “% Cross-React” value was 1.0%. `CCCCCOC(=O)Nc1nc(=O)n([C@@H]2O[C@H](C)[C@@H](O)[C@H]2O)cc1F` [Capecitabine] was tested, and the “% Cross-React” value was 0.6%. For `O=C1[O][Pt]2([NH][C@@H]3CCCC[C@H]3[NH]2)[O]C1=O` [Oxaliplatin], the “% Cross-React” value was 0.0%.

Same assay, conditions: Without 5-FU; lyophilized reagents; human plasma
With `Cc1cn([C@H]2C[C@H](O)[C@@H](CO)O2)c(=O)[nH]c1=O` [Thymidine] the “% Cross-React” value was 0.2%. In the case of `O=c1[nH]c(=O)n(C2CCCO2)cc1F` (centres unmarked) [Tegafur], the “% Cross-React” value is reported as 42%. In the case of `O=c1ccn([C@@H]2O[C@H](CO)[C@@H](O)[C@H]2O)c(=O)[nH]1` [Uridine], the “% Cross-React” value is reported as 0.5%. In the case of Hemoglobin, the “% Cross-React” value is reported as 0.0%. For `CN(Cc1cnc2nc(N)nc(N)c2n1)c1ccc(C(=O)N[C@@H](CCC(=O)O)C(=O)O)cc1` [Methotrexate], the “% Cross-React” value was 0.0%. In the case of `O=c1cc[nH]c(=O)[nH]1` [Uracil], the “% Cross-React” value is reported as 1.9%. With `Nc1nc(=O)c2c([nH]1)NCC(CNc1ccc(C(=O)N[C@@H](CCC(=O)O)C(=O)O)cc1)N2C=O` (mixture of isomers) [Folinic Acid] the “% Cross-React” value was 0.0%. `Cc1c[nH]c(=O)[nH]c1=O` [Thymine] was tested, and the “% Cross-React” value was 1.0%. `CCCCCOC(=O)Nc1nc(=O)n([C@@H]2O[C@H](C)[C@@H](O)[C@H]2O)cc1F` [Capecitabine] was tested, and the “% Cross-React” value was 0.0%.

The molecules below were run on antibody 61C6 (assay: 5-FU ECL assay with antibody 61C6, summary of cross-reactivity). Conditions: 5-FU assay with antibody 61C6.
Format: binding, Balb/c mouse
Protocol: The capture reagent 1-5C-5-FU-M270 beads appeared to be stable at 2-8° C. for at least 40 hours. […] The functional sensitivity was determined to be approximately 10 ng/mL (which is an estimate of functional sensitivity based on the calibrator curve).
In the case of `O=c1[nH]c(=O)n(C2CCCO2)cc1F` (centres unmarked) [Tegafur], the cross-reactivity is reported as “less than 12%”.

The molecules below were run on mAb 61C6 (assay: Competitive ECL cross-reactivity test in human plasma with and without 5-FU). Conditions: With 5-FU (379 ng/mL); human plasma; chemicals 10 μg/mL, chemotherapy drugs 100 μg/mL.
With `Cc1cn([C@H]2C[C@H](O)[C@@H](CO)O2)c(=O)[nH]c1=O` [Thymidine] the “Cross-Reactivity (%)” value was 0.13%. With `O=c1[nH]c(=O)n(C2CCCO2)cc1F` (centres unmarked) [Tegafur] the “Cross-Reactivity (%)” value was 15.5%. `O=c1ccn([C@@H]2O[C@H](CO)[C@@H](O)[C@H]2O)c(=O)[nH]1` [Uridine] was tested, and the “Cross-Reactivity (%)” value was 0.16%. In the case of `N.N.[Cl][Pt][Cl]` [Cisplatin], the “Cross-Reactivity (%)” value is reported as −0.04%. `CN(Cc1cnc2nc(N)nc(N)c2n1)c1ccc(C(=O)N[C@@H](CCC(=O)O)C(=O)O)cc1` [Methotrexate] was tested, and the “Cross-Reactivity (%)” value was −0.02%. With `O=c1cc[nH]c(=O)[nH]1` [Uracil] the “Cross-Reactivity (%)” value was 0.11%. `Nc1nc(=O)c2c([nH]1)NCC(CNc1ccc(C(=O)N[C@@H](CCC(=O)O)C(=O)O)cc1)N2C=O` (mixture of isomers) [Folinic Acid] was tested, and the “Cross-Reactivity (%)” value was −0.01%. With `Cc1c[nH]c(=O)[nH]c1=O` [Thymine] the “Cross-Reactivity (%)” value was 0.80%. In the case of `O=C1NCC(F)C(=O)N1` (centres unmarked) [DH5FU, 5-Fluorodihydropyrimidine-2,4-dione], the “Cross-Reactivity (%)” value is reported as 1.74%. For `CCCCCOC(=O)Nc1nc(=O)n([C@@H]2O[C@H](C)[C@@H](O)[C@H]2O)cc1F` [Capecitabine], the “Cross-Reactivity (%)” value was −0.13%. `O=C1[O][Pt]2([NH][C@@H]3CCCC[C@H]3[NH]2)[O]C1=O` [Oxaliplatin] was tested, and the “Cross-Reactivity (%)” value was 0.01%.

Same assay, conditions: Without 5-FU; human plasma; chemicals 10 μg/mL, chemotherapy drugs 100 μg/mL
In the case of `Cc1cn([C@H]2C[C@H](O)[C@@H](CO)O2)c(=O)[nH]c1=O` [Thymidine], the “Cross-Reactivity (%)” value is reported as 0.05%. `O=c1[nH]c(=O)n(C2CCCO2)cc1F` (centres unmarked) [Tegafur] was tested, and the “Cross-Reactivity (%)” value was 16.2%. With `O=c1ccn([C@@H]2O[C@H](CO)[C@@H](O)[C@H]2O)c(=O)[nH]1` [Uridine] the “Cross-Reactivity (%)” value was 0.21%. For `N.N.[Cl][Pt][Cl]` [Cisplatin], the “Cross-Reactivity (%)” value was 0.001%. In the case of `CN(Cc1cnc2nc(N)nc(N)c2n1)c1ccc(C(=O)N[C@@H](CCC(=O)O)C(=O)O)cc1` [Methotrexate], the “Cross-Reactivity (%)” value is reported as 0.000%. With `O=c1cc[nH]c(=O)[nH]1` [Uracil] the “Cross-Reactivity (%)” value was 0.94%. With `Nc1nc(=O)c2c([nH]1)NCC(CNc1ccc(C(=O)N[C@@H](CCC(=O)O)C(=O)O)cc1)N2C=O` (mixture of isomers) [Folinic Acid] the “Cross-Reactivity (%)” value was 0.000%. For `Cc1c[nH]c(=O)[nH]c1=O` [Thymine], the “Cross-Reactivity (%)” value was 0.59%. `O=C1NCC(F)C(=O)N1` (centres unmarked) [DH5FU, 5-Fluorodihydropyrimidine-2,4-dione] was tested, and the “Cross-Reactivity (%)” value was 2.62%. For `CCCCCOC(=O)Nc1nc(=O)n([C@@H]2O[C@H](C)[C@@H](O)[C@H]2O)cc1F` [Capecitabine], the “Cross-Reactivity (%)” value was 0.00%. In the case of `O=C1[O][Pt]2([NH][C@@H]3CCCC[C@H]3[NH]2)[O]C1=O` [Oxaliplatin], the “Cross-Reactivity (%)” value is reported as 0.000%.

Same assay, conditions: with and without 5-FU; Table 5
`N.N.[Cl][Pt][Cl]` [Cisplatin] was tested, and the cross-reactivity was “essentially undetectable”. `CN(Cc1cnc2nc(N)nc(N)c2n1)c1ccc(C(=O)N[C@@H](CCC(=O)O)C(=O)O)cc1` [Methotrexate] was tested, and the cross-reactivity was “essentially undetectable”. With `CCc1c2c(nc3ccc(OC(=O)N4CCC(N5CCCCC5)CC4)cc13)-c1cc3c(c(=O)n1C2)COC(=O)[C@]3(O)CC` [Irinotecan] the cross-reactivity was “essentially undetectable”. With `Nc1nc(=O)c2c([nH]1)NCC(CNc1ccc(C(=O)N[C@@H](CCC(=O)O)C(=O)O)cc1)N2C=O` (mixture of isomers) [Folinic Acid] the cross-reactivity was “essentially undetectable”. With `O=C1[O][Pt]2([NH][C@@H]3CCCC[C@H]3[NH]2)[O]C1=O` [Oxaliplatin] the cross-reactivity was “essentially undetectable”.
